Data published in patent publication US20080153838A1, “Compounds Having Tie2 (Tek) Activity” (ASTRAZENECA AB, priority 2005, published 2008).

What was measured:
[1] = molecular target: T1, Tie2 receptor tyrosine kinase (Homo sapiens, UniProt Q02763); assay: In vitro receptor tyrosine kinase inhibition assay (ELISA, Test (a)); format: biochemical; design: consist of only the intracellular portion C-terminal portion of the respective receptor, within which is found the kinase domain; made in house; host or cells: baculovirus/Sf21 insect cells; cleared lysate used without purification; conditions: recombinant human Tie2 kinase domain, peptide substrate
Method: a. In Vitro Receptor Tyrosine Kinase Inhibition Assay
To test for inhibition of Tie2 receptor tyrosine kinase, compounds are evaluated in a non-cell based protein kinase assay by their ability to inhibit the protein kinase enzyme phosphorylation of a tyrosine containing polypeptide substrate in an ELISA based microtitre plate assay. In this particular case, the assay was to determine the IC50, for three different recombinant human tyrosine kinases Tie2, KDR and Flt.
To facilitate production of the tyrosine kinases, recombinant receptor genes were produced using standard molecular biology cloning and mutagenesis techniques. These recombinant proteins fragments encoded within these genes consist of only the intracellular portion C-terminal portion of the respective receptor, within which is found the kinase domain. The recombinant genes encoding the kinase domain containing fragments were cloned and expressed in standard baculovirus/Sf21 system (or alternative equivalent). […]
Constitutive kinase activity of these recombinant proteins was determined by their ability to phosphorylate a synthetic peptide (made up of a random co-polymer of Glutamic Acid, Alanine and Tyrosine in the ratio of 6:3:1). […]
The immobilised phospho-peptide product of the reaction was detected by immunological methods. […] Following extensive washing with PBS-T, HRP activity in each well of the plate was measured […] using 22′-Azino-di-[3-ethylbenzthiazoline sulfonate (6)] diammonium salt crystals ABTS (Sigma P4922—prepared as per manufactures instructions) as a substrate incubated for 30-45 minutes to allow colour development, before 100 ul of 1M H2SO4 was added to stop the reaction.
Quantification of colour development and thus enzyme activity was achieved by the measurement of absorbance at 405 nm on a Molecular Devices ThermoMax microplate reader. Kinase inhibition for a given compound was expressed as an IC50 value. […] The range of phosphorylation was calculated from the positive (vehicle plus ATP) and negative (vehicle minus ATP) control values.
Target sequence in this assay (Q02763 770-1124 limits assumed): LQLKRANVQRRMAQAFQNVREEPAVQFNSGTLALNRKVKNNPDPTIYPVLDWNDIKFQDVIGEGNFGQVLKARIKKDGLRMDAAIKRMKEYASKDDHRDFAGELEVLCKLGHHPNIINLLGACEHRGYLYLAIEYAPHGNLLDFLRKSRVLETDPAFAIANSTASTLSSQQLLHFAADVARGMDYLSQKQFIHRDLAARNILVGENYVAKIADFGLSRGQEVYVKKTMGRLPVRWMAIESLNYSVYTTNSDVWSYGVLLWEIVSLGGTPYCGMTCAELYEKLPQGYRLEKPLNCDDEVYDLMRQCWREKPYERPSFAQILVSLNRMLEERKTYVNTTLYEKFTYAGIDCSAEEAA

[2] = molecular target: T1, Tie2 receptor tyrosine kinase; assay: Cellular Tie2 autophosphorylation assay (Test (b)); format: cell-based; design: one can use natural cell lines or primary cells which are known to express the receptor of choice; endogenous in cells; host or cells: EA.hy926/B3 cells (HUVEC named as alternative); conditions: Ang1 ligand stimulated whole cells (e.g. EA.hy926/B3); read-out: IC50 (μM) Test (b): Inhibition of autophosphorylation of Tie2 receptor tyrosine kinase
From the text: b. Cellular Tie2 Autophosphorylation Assay
This assay is based on measuring the ability of compounds to inhibit autophosphorylation of the Tie2 receptor which normally leads to the production of “activated” receptor that in turn initiates the particular signal transduction pathways associated with the receptor function.
Autophosphorylation can be achieved by a number of means. It is known that expression of recombinant kinase domains in baculoviral systems can lead to the production of phosphorylated and activated receptor. It is also reported that over expression of receptors in recombinant cell lines can itself lead to receptor autophosphorylation in the absence of the ligand (Heldin C-H. 1995 Cell: 80, 213-223; Blume-J. P, Hunter T. 2001 Nature: 411, 355-65). Furthermore, there are numerous literature examples in which chimaeric receptors have been constructed. In these cases the natural, external cell surface domain of the receptor has been replaced with that of a domain which is known to be readily dimerised via the addition of the appropriate ligand (e.g. TrkA-Tie2/NGF ligand (Marron, M. B., et al., 2000 Journal of Biological Chemistry: 275:39741-39746) or C-fms-Tie-1/CSF-1 ligand (Kontos, C. D., et al., 2002 Molecular and Cellular Biology: 22, 1704-1713). Thus when the chimaeric receptor expressed in a host cell line and the respective ligand is added, this induces autophosphorylation of the chimeric receptor's kinase domain. This approach has the advantage of often allowing a known (and often easily obtained) ligand to be used instead of having to identify and isolate the natural ligand for each receptor of interest.
Naturally if the ligand is available one can use natural cell lines or primary cells which are known to express the receptor of choice and simply stimulate with ligand to achieve ligand induced phosphorylation. […]
Target sequence in this assay (Q02763 23-1124): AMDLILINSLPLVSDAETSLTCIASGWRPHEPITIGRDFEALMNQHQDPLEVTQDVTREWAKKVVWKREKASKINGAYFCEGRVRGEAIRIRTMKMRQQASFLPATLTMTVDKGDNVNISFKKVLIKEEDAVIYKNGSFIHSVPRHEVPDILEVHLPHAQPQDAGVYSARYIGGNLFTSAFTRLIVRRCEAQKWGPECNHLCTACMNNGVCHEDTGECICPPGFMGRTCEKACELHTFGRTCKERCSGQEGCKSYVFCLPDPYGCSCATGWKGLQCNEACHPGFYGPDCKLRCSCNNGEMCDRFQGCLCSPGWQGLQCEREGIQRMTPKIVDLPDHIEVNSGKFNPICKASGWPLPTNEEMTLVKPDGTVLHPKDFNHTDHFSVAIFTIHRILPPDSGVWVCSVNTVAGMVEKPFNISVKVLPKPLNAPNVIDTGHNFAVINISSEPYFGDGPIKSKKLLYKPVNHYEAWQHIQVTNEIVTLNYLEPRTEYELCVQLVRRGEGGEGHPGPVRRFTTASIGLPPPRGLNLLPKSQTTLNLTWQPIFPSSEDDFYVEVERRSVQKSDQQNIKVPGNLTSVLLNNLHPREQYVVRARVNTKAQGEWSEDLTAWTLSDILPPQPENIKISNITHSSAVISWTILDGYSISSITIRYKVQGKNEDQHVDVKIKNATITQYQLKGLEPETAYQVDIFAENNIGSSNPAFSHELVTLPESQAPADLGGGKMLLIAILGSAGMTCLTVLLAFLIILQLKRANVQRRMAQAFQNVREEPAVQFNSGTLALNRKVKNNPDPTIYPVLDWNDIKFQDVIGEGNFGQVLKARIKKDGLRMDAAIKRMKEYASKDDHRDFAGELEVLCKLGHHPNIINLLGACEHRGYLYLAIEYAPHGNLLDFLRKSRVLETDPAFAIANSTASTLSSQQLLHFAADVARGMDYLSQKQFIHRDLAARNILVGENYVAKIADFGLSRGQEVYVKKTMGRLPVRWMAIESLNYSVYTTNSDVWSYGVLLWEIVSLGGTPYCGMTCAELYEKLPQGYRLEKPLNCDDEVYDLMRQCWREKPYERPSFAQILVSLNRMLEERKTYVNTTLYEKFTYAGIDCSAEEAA

| SMILES | IC50 [1] [µM] | IC50 [2] [µM] |
| --- | --- | --- |
| CC(C)(C)c1cc(NC(=O)Nc2cccc(C#Cc3ccc(N)nc3)c2)no1 [Example 2, N-{3-[(6-aminopyridin-3-yl)ethynyl]phenyl}-N′-(5-tert-butylisoxazol-3-yl)urea] | 2.6 | 0.031 |
| CC(C)(C)c1cc(NC(=O)Nc2cccc(C#Cc3cccnc3N)c2)no1 [Example 3, N-2{3-[(2-aminopyridin-3-yl)ethynyl]phenyl}-N′-(5-tert-butylisoxazol-3-yl)urea] | 8.2 | 0.077 |
| CC(C)(C)c1cc(NC(=O)Nc2cccc(C#Cc3cnc(N)cn3)c2)no1 [Example 5, N-{3-[(5-aminopyrazin-2-yl)ethynyl]phenyl}-N′-(5-tert-butylisoxazol-3-yl)urea] | 4.4 | 0.02 |
